Source: ChEMBL document CHEMBL1155886, “Discovery of piperidine-aryl urea-based stearoyl-CoA desaturase 1 inhibitors” (Bioorg Med Chem Lett, 2008)
pIC50: −log10 of the molar value. Active and inactive are the calls of the source. The calls are words filed in the database; no cut-off is given here.

Tests used:
Acyl-CoA desaturase 1 = biological target: T1, Acyl-CoA desaturase 1 (Mus musculus, UniProt P13516); assay: Inhibition of mouse SCD1
T1 sequence (P13516 whole entry): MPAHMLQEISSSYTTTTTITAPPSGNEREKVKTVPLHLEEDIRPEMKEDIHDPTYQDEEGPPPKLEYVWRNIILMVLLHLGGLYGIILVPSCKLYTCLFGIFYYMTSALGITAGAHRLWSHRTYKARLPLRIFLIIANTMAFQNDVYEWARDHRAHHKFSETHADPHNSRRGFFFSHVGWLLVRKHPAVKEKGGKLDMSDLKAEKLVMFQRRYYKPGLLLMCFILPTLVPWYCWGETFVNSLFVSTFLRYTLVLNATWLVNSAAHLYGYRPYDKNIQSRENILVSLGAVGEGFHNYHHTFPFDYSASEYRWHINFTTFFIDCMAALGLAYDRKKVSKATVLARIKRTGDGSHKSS

[1] = Inhibition of human recombinant SCD1 expressed in baculovirus/insect cell system
[2] = Clearance in mouse plasma; type: ADME, organism-based
[3] = Volume of distribution at steady state in mouse; type: ADME, organism-based; conditions: in vivo, read-out: Vdss
[4] = Oral bioavailability in mouse; type: ADME, organism-based; conditions: in vivo
[5] = biological target: Cytochrome b5 (Homo sapiens) (UniProt P00167); assay: Inhibition of cytochrome b5 at >10 uM
Sequence of Cytochrome b5 (Homo sapiens) (P00167 whole entry): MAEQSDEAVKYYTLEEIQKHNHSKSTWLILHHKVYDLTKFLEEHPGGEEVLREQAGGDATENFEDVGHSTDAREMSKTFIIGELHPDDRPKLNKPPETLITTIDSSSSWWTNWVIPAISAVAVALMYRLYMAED

[6] = Inhibition of cytochrome b5 reductase at >10 uM
Mus musculus [7] = assay: Reduction in desaturation index in liver of ob/ob mouse assessed as ratio of C16:0/C16:1n7 at 10 mg/kg bid; type: functional, organism-based; parameters: dose 10 mg/kg
Mus musculus [8] = assay: Reduction in desaturation index in liver of ob/ob mouse assessed as ratio of C18:0/C18:1n9 at 10 mg/kg bid; type: functional, organism-based; parameters: dose 10 mg/kg
Mus musculus [9] = assay: Reduction in desaturation index in plasma of ob/ob mouse assessed as ratio of C18:0/C18:1n9 at 10 mg/kg bid; type: functional, organism-based; parameters: dose 10 mg/kg
Mus musculus [10] = assay: Reduction in desaturation index in plasma of ob/ob mouse assessed as ratio of C16:0/C16:1n7 at 10 mg/kg bid; type: functional, organism-based; parameters: dose 10 mg/kg
Mus musculus [11] = species on record: Mus musculus; assay: Reduction in triglyceride desaturation index in ob/ob mouse; type: functional, organism-based
Mus musculus [12] = assay: Reduction in desaturation index in liver of ob/ob mouse assessed as ratio of C16:0/C16:1n7 at 30 mg/kg bid; type: functional, organism-based; parameters: dose 30 mg/kg
Mus musculus [13] = assay: Reduction in desaturation index in liver of ob/ob mouse assessed as ratio of C18:0/C18:1n9 at 30 mg/kg bid; type: functional, organism-based; parameters: dose 30 mg/kg
Mus musculus [14] = assay: Reduction in desaturation index in plasma of ob/ob mouse assessed as ratio of C16:0/C16:1n7 at 30 mg/kg bid; type: functional, organism-based; parameters: dose 30 mg/kg
Mus musculus [15] = assay: Reduction in desaturation index in plasma of ob/ob mouse assessed as ratio of C18:0/C18:1n9 at 30 mg/kg bid; type: functional, organism-based; parameters: dose 30 mg/kg

CNC(=O)c1cccc(NC(=O)N2CCC(Oc3cccc(Cl)c3)CC2)c1
pIC50 (Acyl-CoA desaturase 1): 7.70
pIC50 [1]: 6.57

CNC(=O)c1cccc(NC(=O)N2CCC(Oc3ccccc3)CC2)c1
pIC50 (Acyl-CoA desaturase 1): 6.43
pIC50 [1]: 5.40

NC(=O)c1cccc(NC(=O)N2CCC(Oc3ccccc3Cl)CC2)c1
pIC50 (Acyl-CoA desaturase 1): 8.00
pIC50 [1]: 7.23

CNC(=O)c1cccc(NC(=O)N2CCC(Oc3ccccc3Cl)CC2)c1
pIC50 (Acyl-CoA desaturase 1): > 8.40
pIC50 [1]: 7.43
clearance [2]: 6.67 mL/min/kg
Vd [3]: 0.4 L/kg
bioavailability [4]: 92%
Activity [5]: inactive
Activity [6]: inactive
Activity (Mus musculus [7]): Active
Activity (Mus musculus [8]): Active
Activity (Mus musculus [9]): Active
Activity (Mus musculus [10]): Active
Activity (Mus musculus [11]): Dose-dependent effect

O=C(Nc1cccc(-c2ncc[nH]2)c1)N1CCC(Oc2ccccc2Cl)CC1
pIC50 (Acyl-CoA desaturase 1): 8.00
pIC50 [1]: 6.44

CNC(=O)c1cccc(NC(=O)N2CCC(Oc3ccccc3F)CC2)c1
pIC50 (Acyl-CoA desaturase 1): 7.01
pIC50 [1]: 6.17
Activity (Mus musculus [12]): Active
Activity (Mus musculus [13]): Active
Activity (Mus musculus [14]): Active
Activity (Mus musculus [15]): Active

CNC(=O)c1cccc(NC(=O)N2CCC(Oc3ccccc3C)CC2)c1
pIC50 (Acyl-CoA desaturase 1): 7.77
pIC50 [1]: 6.92

CC(C)(C)NC(=O)c1cccc(NC(=O)N2CCC(Oc3ccccc3Cl)CC2)c1
pIC50 (Acyl-CoA desaturase 1): < 5.00
pIC50 [1]: < 5.00

CNC(=O)c1cccc(NC(=O)N2CCC(Oc3c(F)cccc3Cl)CC2)c1
pIC50 (Acyl-CoA desaturase 1): 6.48
pIC50 [1]: 5.01

O=C(Nc1ccccc1)N1CCC(Oc2ccccc2Cl)CC1
pIC50 (Acyl-CoA desaturase 1): 6.23
pIC50 [1]: 5.12

Cc1noc(-c2cccc(NC(=O)N3CCC(Oc4ccccc4Cl)CC3)c2)n1
pIC50 (Acyl-CoA desaturase 1): 8.10
pIC50 [1]: 6.96

CCNC(=O)c1cccc(NC(=O)N2CCC(Oc3ccccc3Cl)CC2)c1
pIC50 (Acyl-CoA desaturase 1): 8.10
pIC50 [1]: 6.82

CNC(=O)c1ccc(NC(=O)N2CCN(C(=O)c3ccccc3C(F)(F)F)CC2)cc1
pIC50 (Acyl-CoA desaturase 1): < 5.00

CNC(=O)c1cccc(NC(=O)N2CCC(Oc3ccccc3Br)CC2)c1
pIC50 (Acyl-CoA desaturase 1): > 8.40
pIC50 [1]: 7.52

CC(C)NC(=O)c1cccc(NC(=O)N2CCC(Oc3ccccc3Cl)CC2)c1
pIC50 (Acyl-CoA desaturase 1): 6.09
pIC50 [1]: 5.15

CNC(=O)c1cccc(NC(=O)N2CCC(Oc3ccccc3OC)CC2)c1
pIC50 (Acyl-CoA desaturase 1): 7.09
pIC50 [1]: 5.72

CNC(=O)c1cccc(NC(=O)N2CCN(C(=O)c3ccccc3C(F)(F)F)CC2)c1
pIC50 (Acyl-CoA desaturase 1): 6.15

CNC(=O)c1cccc(NC(=O)N2CCC(Oc3ccc(F)cc3Cl)CC2)c1
pIC50 (Acyl-CoA desaturase 1): 8.22
pIC50 [1]: 7.24

CNC(=O)c1cccc(NC(=O)N2CCC(Oc3cc(F)ccc3Cl)CC2)c1
pIC50 (Acyl-CoA desaturase 1): > 8.40
pIC50 [1]: 7.74
